Experimental data from PubChem BioAssay (NCI).
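Each compound was tested at five concentrations against cells in 96-well plates for 48 hours. Definition used: TGI = concentration required for complete inhibition of growth.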

System: MALME-3M melanoma
Assay: NCI anticancer screen, dose series, 48 h

| Compound | TGI |
| --- | --- |
| C[C@]12OC(=O)[C@]3(O)CC[C@H]4[C@@H](C[C@@H](O)[C@@]5(Cl)CC=CC(=O)[C@]45C)[C@]45OCC6C(=O)O[C@@H]1C[C@@]6(C)[C@H](C4=O)[C@@]32O5 (stereo not given in full) | 5.04 µM |
| COc1ccc2nc3n[nH]c(N)c3nc2c1 | 69.6 µM |
| O=C(NC(N1CCN(c2cc3c(cc2F)c(=O)c(C(=O)O)cn3C2CC2)CC1)(C(F)(F)F)C(F)(F)F)c1ccccc1 | 77.5 µM |
| Cc1cc2nc3[nH]c4c(Cl)cc(Cl)cc4c3nc2cc1C | > 100 µM |
| Cn1c(CCC2(C)Cc3ccccc3C(=O)O2)cc2ccccc2c1=O (stereo not given) | > 100 µM |

System: SN12C renal
Assay: NCI anticancer screen, dose series, 48 h

| Compound | TGI |
| --- | --- |
| C[C@]12OC(=O)[C@]3(O)CC[C@H]4[C@@H](C[C@@H](O)[C@@]5(Cl)CC=CC(=O)[C@]45C)[C@]45OCC6C(=O)O[C@@H]1C[C@@]6(C)[C@H](C4=O)[C@@]32O5 (stereo not given in full) | 19.3 µM |
| COc1ccc2nc3n[nH]c(N)c3nc2c1 | > 69.1 µM |
| O=C(NC(N1CCN(c2cc3c(cc2F)c(=O)c(C(=O)O)cn3C2CC2)CC1)(C(F)(F)F)C(F)(F)F)c1ccccc1 | > 100 µM |
| Cc1cc2nc3[nH]c4c(Cl)cc(Cl)cc4c3nc2cc1C | > 100 µM |
| Cn1c(CCC2(C)Cc3ccccc3C(=O)O2)cc2ccccc2c1=O (stereo not given) | > 100 µM |

System: RXF 393 renal
Assay: NCI anticancer screen, dose series, 48 h

| Compound | TGI |
| --- | --- |
| C[C@]12OC(=O)[C@]3(O)CC[C@H]4[C@@H](C[C@@H](O)[C@@]5(Cl)CC=CC(=O)[C@]45C)[C@]45OCC6C(=O)O[C@@H]1C[C@@]6(C)[C@H](C4=O)[C@@]32O5 (stereo not given in full) | 1.04 µM |
| COc1ccc2nc3n[nH]c(N)c3nc2c1 | 5.91 µM |
| O=C(NC(N1CCN(c2cc3c(cc2F)c(=O)c(C(=O)O)cn3C2CC2)CC1)(C(F)(F)F)C(F)(F)F)c1ccccc1 | > 100 µM |
| Cc1cc2nc3[nH]c4c(Cl)cc(Cl)cc4c3nc2cc1C | > 100 µM |
| Cn1c(CCC2(C)Cc3ccccc3C(=O)O2)cc2ccccc2c1=O (stereo not given) | 64.4 µM |

System: DU-145 prostate
Assay: NCI anticancer screen, dose series, 48 h

| Compound | TGI |
| --- | --- |
| C[C@]12OC(=O)[C@]3(O)CC[C@H]4[C@@H](C[C@@H](O)[C@@]5(Cl)CC=CC(=O)[C@]45C)[C@]45OCC6C(=O)O[C@@H]1C[C@@]6(C)[C@H](C4=O)[C@@]32O5 (stereo not given in full) | 24.3 µM |
| COc1ccc2nc3n[nH]c(N)c3nc2c1 | > 49.2 µM |
| O=C(NC(N1CCN(c2cc3c(cc2F)c(=O)c(C(=O)O)cn3C2CC2)CC1)(C(F)(F)F)C(F)(F)F)c1ccccc1 | > 100 µM |
| Cc1cc2nc3[nH]c4c(Cl)cc(Cl)cc4c3nc2cc1C | > 100 µM |
| Cn1c(CCC2(C)Cc3ccccc3C(=O)O2)cc2ccccc2c1=O (stereo not given) | 59.8 µM |

System: SR leukemia
Assay: NCI anticancer screen, dose series, 48 h

| Compound | TGI |
| --- | --- |
| C[C@]12OC(=O)[C@]3(O)CC[C@H]4[C@@H](C[C@@H](O)[C@@]5(Cl)CC=CC(=O)[C@]45C)[C@]45OCC6C(=O)O[C@@H]1C[C@@]6(C)[C@H](C4=O)[C@@]32O5 (stereo not given in full) | 14.2 µM |
| COc1ccc2nc3n[nH]c(N)c3nc2c1 | > 78 µM |
| O=C(NC(N1CCN(c2cc3c(cc2F)c(=O)c(C(=O)O)cn3C2CC2)CC1)(C(F)(F)F)C(F)(F)F)c1ccccc1 | 87.2 µM |
| Cc1cc2nc3[nH]c4c(Cl)cc(Cl)cc4c3nc2cc1C | > 100 µM |
| Cn1c(CCC2(C)Cc3ccccc3C(=O)O2)cc2ccccc2c1=O (stereo not given) | > 100 µM |

System: A549 NSCLC
Assay: NCI anticancer screen, dose series, 48 h

| Compound | TGI |
| --- | --- |
| C[C@]12OC(=O)[C@]3(O)CC[C@H]4[C@@H](C[C@@H](O)[C@@]5(Cl)CC=CC(=O)[C@]45C)[C@]45OCC6C(=O)O[C@@H]1C[C@@]6(C)[C@H](C4=O)[C@@]32O5 (stereo not given in full) | 75 µM |
| COc1ccc2nc3n[nH]c(N)c3nc2c1 | > 26.5 µM |
| O=C(NC(N1CCN(c2cc3c(cc2F)c(=O)c(C(=O)O)cn3C2CC2)CC1)(C(F)(F)F)C(F)(F)F)c1ccccc1 | > 100 µM |
| Cc1cc2nc3[nH]c4c(Cl)cc(Cl)cc4c3nc2cc1C | > 100 µM |
| Cn1c(CCC2(C)Cc3ccccc3C(=O)O2)cc2ccccc2c1=O (stereo not given) | > 100 µM |

System: SF-539 CNS
Assay: NCI anticancer screen, dose series, 48 h

| Compound | TGI |
| --- | --- |
| C[C@]12OC(=O)[C@]3(O)CC[C@H]4[C@@H](C[C@@H](O)[C@@]5(Cl)CC=CC(=O)[C@]45C)[C@]45OCC6C(=O)O[C@@H]1C[C@@]6(C)[C@H](C4=O)[C@@]32O5 (stereo not given in full) | 1.97 µM |
| COc1ccc2nc3n[nH]c(N)c3nc2c1 | 12 µM |
| O=C(NC(N1CCN(c2cc3c(cc2F)c(=O)c(C(=O)O)cn3C2CC2)CC1)(C(F)(F)F)C(F)(F)F)c1ccccc1 | 80.8 µM |
| Cc1cc2nc3[nH]c4c(Cl)cc(Cl)cc4c3nc2cc1C | > 100 µM |
| Cn1c(CCC2(C)Cc3ccccc3C(=O)O2)cc2ccccc2c1=O (stereo not given) | 74.4 µM |

System: SNB-75 CNS
Assay: NCI anticancer screen, dose series, 48 h

| Compound | TGI |
| --- | --- |
| C[C@]12OC(=O)[C@]3(O)CC[C@H]4[C@@H](C[C@@H](O)[C@@]5(Cl)CC=CC(=O)[C@]45C)[C@]45OCC6C(=O)O[C@@H]1C[C@@]6(C)[C@H](C4=O)[C@@]32O5 (stereo not given in full) | 19.6 µM |
| COc1ccc2nc3n[nH]c(N)c3nc2c1 | 21.7 µM |
| O=C(NC(N1CCN(c2cc3c(cc2F)c(=O)c(C(=O)O)cn3C2CC2)CC1)(C(F)(F)F)C(F)(F)F)c1ccccc1 | > 100 µM |
| Cc1cc2nc3[nH]c4c(Cl)cc(Cl)cc4c3nc2cc1C | 42 µM |
| Cn1c(CCC2(C)Cc3ccccc3C(=O)O2)cc2ccccc2c1=O (stereo not given) | 58.3 µM |

System: HS 578T breast
Assay: NCI anticancer screen, dose series, 48 h

| Compound | TGI |
| --- | --- |
| C[C@]12OC(=O)[C@]3(O)CC[C@H]4[C@@H](C[C@@H](O)[C@@]5(Cl)CC=CC(=O)[C@]45C)[C@]45OCC6C(=O)O[C@@H]1C[C@@]6(C)[C@H](C4=O)[C@@]32O5 (stereo not given in full) | 44.5 µM |
| COc1ccc2nc3n[nH]c(N)c3nc2c1 | 23.8 µM |
| O=C(NC(N1CCN(c2cc3c(cc2F)c(=O)c(C(=O)O)cn3C2CC2)CC1)(C(F)(F)F)C(F)(F)F)c1ccccc1 | > 100 µM |
| Cc1cc2nc3[nH]c4c(Cl)cc(Cl)cc4c3nc2cc1C | > 100 µM |
| Cn1c(CCC2(C)Cc3ccccc3C(=O)O2)cc2ccccc2c1=O (stereo not given) | > 100 µM |

System: LOX IMVI melanoma
Assay: NCI anticancer screen, dose series, 48 h

| Compound | TGI |
| --- | --- |
| C[C@]12OC(=O)[C@]3(O)CC[C@H]4[C@@H](C[C@@H](O)[C@@]5(Cl)CC=CC(=O)[C@]45C)[C@]45OCC6C(=O)O[C@@H]1C[C@@]6(C)[C@H](C4=O)[C@@]32O5 (stereo not given in full) | 6.46 µM |
| COc1ccc2nc3n[nH]c(N)c3nc2c1 | 20.4 µM |
| O=C(NC(N1CCN(c2cc3c(cc2F)c(=O)c(C(=O)O)cn3C2CC2)CC1)(C(F)(F)F)C(F)(F)F)c1ccccc1 | > 100 µM |
| Cc1cc2nc3[nH]c4c(Cl)cc(Cl)cc4c3nc2cc1C | > 100 µM |

System: HCT-15 colon
Assay: NCI anticancer screen, dose series, 48 h

| Compound | TGI |
| --- | --- |
| C[C@]12OC(=O)[C@]3(O)CC[C@H]4[C@@H](C[C@@H](O)[C@@]5(Cl)CC=CC(=O)[C@]45C)[C@]45OCC6C(=O)O[C@@H]1C[C@@]6(C)[C@H](C4=O)[C@@]32O5 (stereo not given in full) | 7.61 µM |
| COc1ccc2nc3n[nH]c(N)c3nc2c1 | > 93.7 µM |
| O=C(NC(N1CCN(c2cc3c(cc2F)c(=O)c(C(=O)O)cn3C2CC2)CC1)(C(F)(F)F)C(F)(F)F)c1ccccc1 | 61.6 µM |
| Cc1cc2nc3[nH]c4c(Cl)cc(Cl)cc4c3nc2cc1C | > 100 µM |
| Cn1c(CCC2(C)Cc3ccccc3C(=O)O2)cc2ccccc2c1=O (stereo not given) | > 100 µM |

System: HT29 colon
Assay: NCI anticancer screen, dose series, 48 h

| Compound | TGI |
| --- | --- |
| C[C@]12OC(=O)[C@]3(O)CC[C@H]4[C@@H](C[C@@H](O)[C@@]5(Cl)CC=CC(=O)[C@]45C)[C@]45OCC6C(=O)O[C@@H]1C[C@@]6(C)[C@H](C4=O)[C@@]32O5 (stereo not given in full) | 5.35 µM |
| COc1ccc2nc3n[nH]c(N)c3nc2c1 | 36.9 µM |
| O=C(NC(N1CCN(c2cc3c(cc2F)c(=O)c(C(=O)O)cn3C2CC2)CC1)(C(F)(F)F)C(F)(F)F)c1ccccc1 | > 100 µM |
| Cc1cc2nc3[nH]c4c(Cl)cc(Cl)cc4c3nc2cc1C | > 100 µM |

System: EKVX NSCLC
Assay: NCI anticancer screen, dose series, 48 h

| Compound | TGI |
| --- | --- |
| C[C@]12OC(=O)[C@]3(O)CC[C@H]4[C@@H](C[C@@H](O)[C@@]5(Cl)CC=CC(=O)[C@]45C)[C@]45OCC6C(=O)O[C@@H]1C[C@@]6(C)[C@H](C4=O)[C@@]32O5 (stereo not given in full) | 4.91 µM |
| COc1ccc2nc3n[nH]c(N)c3nc2c1 | 45.6 µM |
| O=C(NC(N1CCN(c2cc3c(cc2F)c(=O)c(C(=O)O)cn3C2CC2)CC1)(C(F)(F)F)C(F)(F)F)c1ccccc1 | > 100 µM |
| Cc1cc2nc3[nH]c4c(Cl)cc(Cl)cc4c3nc2cc1C | > 100 µM |

System: MOLT-4 leukemia
Assay: NCI anticancer screen, dose series, 48 h

| Compound | TGI |
| --- | --- |
| C[C@]12OC(=O)[C@]3(O)CC[C@H]4[C@@H](C[C@@H](O)[C@@]5(Cl)CC=CC(=O)[C@]45C)[C@]45OCC6C(=O)O[C@@H]1C[C@@]6(C)[C@H](C4=O)[C@@]32O5 (stereo not given in full) | 17.4 µM |
| COc1ccc2nc3n[nH]c(N)c3nc2c1 | > 100 µM |
| O=C(NC(N1CCN(c2cc3c(cc2F)c(=O)c(C(=O)O)cn3C2CC2)CC1)(C(F)(F)F)C(F)(F)F)c1ccccc1 | 62 µM |
| Cc1cc2nc3[nH]c4c(Cl)cc(Cl)cc4c3nc2cc1C | > 100 µM |

System: MDA-N
Assay: NCI anticancer screen, dose series, 48 h

| Compound | TGI |
| --- | --- |
| C[C@]12OC(=O)[C@]3(O)CC[C@H]4[C@@H](C[C@@H](O)[C@@]5(Cl)CC=CC(=O)[C@]45C)[C@]45OCC6C(=O)O[C@@H]1C[C@@]6(C)[C@H](C4=O)[C@@]32O5 (stereo not given in full) | 17 µM |
| COc1ccc2nc3n[nH]c(N)c3nc2c1 | 44.4 µM |
| O=C(NC(N1CCN(c2cc3c(cc2F)c(=O)c(C(=O)O)cn3C2CC2)CC1)(C(F)(F)F)C(F)(F)F)c1ccccc1 | > 100 µM |
| Cc1cc2nc3[nH]c4c(Cl)cc(Cl)cc4c3nc2cc1C | > 100 µM |
